The source of these data is ChEMBL document CHEMBL4229467, “Acyl Glucuronide Metabolites of 6-Chloro-5-[4-(1-hydroxycyclobutyl)phenyl]-1 H-indole-3-carboxylic Acid (PF-06409577) and Related Indole-3-carboxylic Acid Derivatives are Direct Activators of Adenosine Monophosphate-Activated Protein Kinase (AMPK)” (J Med Chem, 2018).

A short description of series [1]: Drug metabolism in human hepatocytes assessed as (2S,3S,4S,5R,6S)-6-((4,6-Difluoro-5-(4-((S)-tetrahydro-2H-pyran-2-yl)phenyl-1H-indole-3-carbonyl)oxy)-3,4,5-trihydroxytetrahydro-2H-pyran-2-carboxylic acid formation at 10 uM after 4 hrs by HPLC-UV analysis. It is filed as ADME, cell-based, Hepatocyte.
The test system of series [2] is Hepatocyte. The following applies: human, hepatocytes, 4 h, 10 µM.
Description: Retention time of the compound in human hepatocytes at 10 uM after 4 hrs by HPLC-UV analysis
Series [3] in a line: physchem. The following applies: in vivo, pH 7.4.
A short description of series [4]: Drug level in human hepatocytes treated with 6-chloro-5-[4-(1-hydroxycyclobutyl)phenyl]-1H-indole-3-carboxylic acid at 10 uM after 4 hrs by HPLC-UV analysis. The format is ADME, cell-based, Hepatocyte.
Series [5] in a line: Half life in rat hepatocytes. The format is ADME, cell-based, Hepatocyte.
Series [6] is described as follows: Intrinsic clearance in human primary hepatocytes assessed per million cells. The format is ADME, cell-based, Hepatocyte. The following applies: read-out: CLH.
A short description of series [7]: Half life in human primary hepatocytes at 10 uM. The format is ADME, cell-based, Hepatocyte.
The nature of series [8]: Half life of the compound in deuteriated phosphate buffer at pH 7.4 at 37 degC measured every 25 mins for 21 hrs by 1H NMR analysis. The format is physicochemical.
Series [9] is described as follows: Plasma clearance in Wistar Han rat at 0.5 mg/kg, iv by LC-MS/MS analysis. It is filed as ADME, organism-based.
A short description of series [10]: AUC (0 to 24 hrs) in Wistar Han rat at 0.5 mg/kg, iv by LC-MS/MS analysis. It is filed as ADME, organism-based. On the set-up: time < 24 hr, dose 0.5 mg/kg, route intravenous. The following applies: in vivo.
Series [11] concerns Rattus norvegicus. As to the kind of experiment: AUC (0 to 24 hrs) in Wistar Han rat assessed as 6-chloro-5-[4-(1-hydroxycyclobutyl)phenyl]-1H-indole-3-carboxylic acid level at 0.5 mg/kg, iv by LC-MS/MS analysis. The format is ADME, organism-based. Also on record: time < 24 hr, dose 0.5 mg/kg, route intravenous. The following applies: in vivo.
A short description of series [12]: Volume of distribution at steady state in Wistar Han rat at 0.5 mg/kg, iv by LC-MS/MS analysis. The format is ADME, organism-based. The following applies: in vivo, read-out: Vdss.
Series [13] can be described thus: Half life in Wistar Han rat at 0.5 mg/kg, iv by LC-MS/MS analysis. The format is ADME, organism-based. The following applies: in vivo.
The subject of series [14] is Cynomolgus monkey. As to the kind of experiment: AUC (0 to 24 hrs) in cynomolgus monkey assessed as 6-chloro-5-[4-(1-hydroxycyclobutyl)phenyl]-1H-indole-3-carboxylic acid level at 0.5 mg/kg, iv by LC-MS/MS analysis. To be noted: in vivo. It is filed as ADME, organism-based, Macaca fascicularis. On the set-up: dose 0.5 mg/kg, time < 24 hr, route intravenous.
Series [15] is described as follows: Drug recovery in Wistar Han rat urine assessed as unchanged parent compound level at 0.5 mg/kg, iv by LC-MS/MS analysis. The format is ADME, organism-based. The following applies: read-out: Drug recovery.
A short description of series [16]: Half life in human hepatocytes. It is filed as ADME, cell-based, Hepatocyte.
A short description of series [17]: Half life in monkey hepatocytes. It is filed as ADME, cell-based, Macaca mulatta, Hepatocyte. The following applies: rhesus monkey.
Series [18] is described as follows: Intrinsic clearance in rat hepatocytes assessed per million cells. It is filed as ADME, cell-based, Hepatocyte. To be noted: read-out: CLH.
The nature of series [19]: Intrinsic clearance in human hepatocytes assessed per million cells. It is filed as ADME, cell-based, Hepatocyte. The following applies: read-out: CLH.
Series [20] is described as follows: Intrinsic clearance in monkey hepatocytes assessed per million cells. The following applies: rhesus monkey, read-out: CLH. It is filed as ADME, cell-based, Macaca mulatta, Hepatocyte.
The nature of series [21]: in vivo. The following applies: cynomolgus monkey, plasma, iv, 1 mg/kg.
Series [22] is described as follows: in vivo. The following applies: cynomolgus monkey, iv, 1 mg/kg.
Series [23] can be described thus: in vivo. To be noted: cynomolgus monkey, iv, 1 mg/kg. The source holds these as a separate data set.
Description: Volume of distribution at steady state in cynomolgus monkey at 1 mg/kg, iv by LC-MS/MS analysis
Series [24] is described as follows: in vivo. To be noted: cynomolgus monkey, iv, 1 mg/kg. This is another data set of the same source.
Description: Half life in cynomolgus monkey at 1 mg/kg, iv by LC-MS/MS analysis
Series [25] in a line: in vivo. To be noted: cynomolgus monkey, urine, iv, 1 mg/kg.
Description: Drug recovery in cynomolgus monkey urine assessed as unchanged parent compound level at 1 mg/kg, iv by LC-MS/MS analysis
Series [26] in a line: in vitro. To be noted: rhesus monkey, plasma.
Description: Protein binding in monkey plasma assessed as unbound fraction
Series [27] is described as follows: in vitro. The following applies: human, plasma.
Description: Protein binding in human plasma assessed as unbound fraction
Series [28] can be described thus: in vitro. To be noted: rat, plasma.
Description: Protein binding in rat plasma assessed as unbound fraction
Series [29] can be described thus: in vitro. To be noted: dog, MDCK.
Description: Apparent passive permeability of the compound in RRCK cells by FACS analysis
The nature of series [30]: Drug level in human hepatocytes treated with (S)-4,6-difluoro-5-(4-(tetrahydro-2H-pyran-2-yl)phenyl)-1H-indole-3-carboxylic acid at 10 uM after 4 hrs by HPLC-UV analysis. It is filed as ADME, cell-based, Hepatocyte.
Series [31] addresses AMP-activated protein kinase (AMPK) alpha-1/beta-1/gamma-1 (Homo sapiens) (UniProt P54619+Q9Y478+Q13131).
Description: Binding affinity to Bap-tagged human AMPKalpha1beta1gamma1 expressed in Escherichia coli BL21 cells assessed as dissociation half life by SPR analysis
Series [32] has as its target AMPK alpha2/beta2/gamma3 (Homo sapiens, UniProt O43741+P54646+Q9UGI9). The series is described as follows: biochemical.
Description: Activation of full-length recombinant N-terminal His-tagged human AMPKalpha2beta2gamma3 expressed in Escherichia coli BL21 cells using Cy-5 SAMS peptide as substrate preincubated for 60 mins followed by substrate addition and measured after 60 mins in presence of PP2a by TR-FRET assay
The target in series [33] is T1, AMP-activated protein kinase (AMPK) alpha-1/beta-1/gamma-1 (Homo sapiens, UniProt P54619+Q13131+Q9Y478). The series is described as follows: biochemical.
Description: Binding affinity to Bap-tagged human AMPKalpha1beta1gamma1 expressed in Escherichia coli BL21 cells by SPR analysis
The target in series [34] is AMPK alpha2/beta2/gamma1 (Homo sapiens, UniProt O43741+P54619+P54646). The series is described as follows: biochemical.
Description: Activation of full-length recombinant N-terminal His-tagged human AMPKalpha2beta2gamma1 expressed in Escherichia coli BL21 cells using Cy-5 SAMS peptide as substrate preincubated for 60 mins followed by substrate addition and measured after 60 mins in presence of PP2a by TR-FRET assay
Series [35] addresses AMPK alpha1/beta2/gamma1 (Homo sapiens, UniProt O43741+P54619+Q13131). The series is described as follows: biochemical.
Description: Activation of full-length recombinant N-terminal His-tagged human AMPKalpha1beta2gamma1 expressed in Escherichia coli BL21 cells using Cy-5 SAMS peptide as substrate preincubated for 60 mins followed by substrate addition and measured after 60 mins in presence of PP2a by TR-FRET assay
Series [36] concerns the target AMPK alpha2/beta1/gamma1 (Homo sapiens, UniProt P54619+P54646+Q9Y478). As to the kind of experiment: biochemical.
Description: Activation of full-length recombinant N-terminal His-tagged human AMPKalpha2beta1gamma1 expressed in Escherichia coli BL21 cells using Cy-5 SAMS peptide as substrate preincubated for 60 mins followed by substrate addition and measured after 60 mins in presence of PP2a by TR-FRET assay
Series [37] deals with T1, AMP-activated protein kinase (AMPK) alpha-1/beta-1/gamma-1. The series is described as follows: biochemical. The source holds these as a separate data set.
Description: Activation of full-length recombinant N-terminal His-tagged human AMPKalpha1beta1gamma1 expressed in Escherichia coli BL21 cells using Cy-5 SAMS peptide as substrate preincubated for 60 mins followed by substrate addition and measured after 60 mins in presence of PP2a by TR-FRET assay
A short description of series [38]: Drug level in human hepatocytes treated with 6-chloro-5-(6-(dimethylamino)-2-methoxypyridin-3-yl)-1H-indole-3-carboxylic acid at 10 uM after 4 hrs by HPLC-UV analysis. The format is ADME, cell-based, Hepatocyte.

T1 sequence (P54619 whole entry): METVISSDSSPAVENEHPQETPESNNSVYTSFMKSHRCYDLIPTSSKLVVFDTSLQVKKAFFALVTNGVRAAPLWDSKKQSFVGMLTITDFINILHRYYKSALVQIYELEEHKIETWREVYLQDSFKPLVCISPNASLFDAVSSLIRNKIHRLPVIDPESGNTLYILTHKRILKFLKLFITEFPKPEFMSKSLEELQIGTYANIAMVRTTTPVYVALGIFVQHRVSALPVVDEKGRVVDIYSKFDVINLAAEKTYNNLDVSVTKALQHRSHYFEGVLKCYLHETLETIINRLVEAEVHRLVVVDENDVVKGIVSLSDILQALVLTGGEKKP
T1 sequence (Q9Y478 whole entry): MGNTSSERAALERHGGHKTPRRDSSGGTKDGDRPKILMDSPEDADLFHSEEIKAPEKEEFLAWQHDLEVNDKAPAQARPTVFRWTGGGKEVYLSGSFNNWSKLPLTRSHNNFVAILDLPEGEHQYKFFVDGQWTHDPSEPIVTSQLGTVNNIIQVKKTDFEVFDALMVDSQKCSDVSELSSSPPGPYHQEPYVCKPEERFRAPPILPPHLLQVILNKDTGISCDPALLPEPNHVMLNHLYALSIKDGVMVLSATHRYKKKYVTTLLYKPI
T1 sequence (Q13131 whole entry): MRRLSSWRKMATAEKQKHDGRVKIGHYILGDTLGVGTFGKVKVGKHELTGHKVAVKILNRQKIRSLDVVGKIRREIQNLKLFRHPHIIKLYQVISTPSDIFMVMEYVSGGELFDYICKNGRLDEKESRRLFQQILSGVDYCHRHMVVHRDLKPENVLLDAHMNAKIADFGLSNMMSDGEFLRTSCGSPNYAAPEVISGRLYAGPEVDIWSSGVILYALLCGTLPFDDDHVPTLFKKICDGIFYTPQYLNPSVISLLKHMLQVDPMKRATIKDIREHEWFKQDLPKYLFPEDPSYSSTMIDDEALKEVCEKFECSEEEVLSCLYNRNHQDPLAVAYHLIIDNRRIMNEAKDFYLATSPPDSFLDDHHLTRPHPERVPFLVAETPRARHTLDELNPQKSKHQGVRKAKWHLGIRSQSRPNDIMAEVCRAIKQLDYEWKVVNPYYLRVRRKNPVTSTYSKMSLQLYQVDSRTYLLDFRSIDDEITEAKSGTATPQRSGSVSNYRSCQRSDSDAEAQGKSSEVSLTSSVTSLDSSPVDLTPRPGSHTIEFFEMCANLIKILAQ
Chain of AMPK alpha1/beta2/gamma1 (O43741 whole entry): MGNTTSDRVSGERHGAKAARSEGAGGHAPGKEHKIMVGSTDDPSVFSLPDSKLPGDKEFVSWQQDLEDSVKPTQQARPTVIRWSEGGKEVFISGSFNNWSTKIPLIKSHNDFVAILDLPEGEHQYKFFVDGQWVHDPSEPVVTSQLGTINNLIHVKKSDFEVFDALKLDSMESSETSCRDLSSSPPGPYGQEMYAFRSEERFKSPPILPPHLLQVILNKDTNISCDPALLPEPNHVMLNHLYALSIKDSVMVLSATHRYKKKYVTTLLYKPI
Chain of AMPK alpha1/beta2/gamma1 (P54619 whole entry): as the sequence (P54619 whole entry) above
Chain of AMPK alpha1/beta2/gamma1 (Q13131 whole entry): as the sequence (Q13131 whole entry) above
Chain of AMPK alpha2/beta2/gamma1 (P54646 whole entry): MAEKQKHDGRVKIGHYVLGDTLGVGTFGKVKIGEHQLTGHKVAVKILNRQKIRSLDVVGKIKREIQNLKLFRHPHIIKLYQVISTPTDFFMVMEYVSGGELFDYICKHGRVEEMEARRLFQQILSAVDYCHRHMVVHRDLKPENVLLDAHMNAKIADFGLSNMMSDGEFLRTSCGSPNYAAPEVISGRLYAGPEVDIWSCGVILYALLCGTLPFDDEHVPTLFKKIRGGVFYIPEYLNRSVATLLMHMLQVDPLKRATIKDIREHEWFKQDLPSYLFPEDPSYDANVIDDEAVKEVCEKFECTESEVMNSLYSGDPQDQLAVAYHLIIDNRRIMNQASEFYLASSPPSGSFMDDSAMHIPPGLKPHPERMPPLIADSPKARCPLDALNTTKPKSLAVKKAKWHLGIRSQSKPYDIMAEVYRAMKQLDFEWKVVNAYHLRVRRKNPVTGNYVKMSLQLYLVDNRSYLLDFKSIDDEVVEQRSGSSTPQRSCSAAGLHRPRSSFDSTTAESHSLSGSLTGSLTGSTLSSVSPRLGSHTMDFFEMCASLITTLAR
Chain of AMPK alpha2/beta2/gamma1 (O43741 whole entry): as the sequence (O43741 whole entry) above
Chain of AMPK alpha2/beta2/gamma1 (P54619 whole entry): as the sequence (P54619 whole entry) above
Chain of AMPK alpha2/beta2/gamma3 (P54646 whole entry): as the sequence (P54646 whole entry) above
Chain of AMPK alpha2/beta2/gamma3 (O43741 whole entry): as the sequence (O43741 whole entry) above
Chain of AMPK alpha2/beta2/gamma3 (Q9UGI9 whole entry): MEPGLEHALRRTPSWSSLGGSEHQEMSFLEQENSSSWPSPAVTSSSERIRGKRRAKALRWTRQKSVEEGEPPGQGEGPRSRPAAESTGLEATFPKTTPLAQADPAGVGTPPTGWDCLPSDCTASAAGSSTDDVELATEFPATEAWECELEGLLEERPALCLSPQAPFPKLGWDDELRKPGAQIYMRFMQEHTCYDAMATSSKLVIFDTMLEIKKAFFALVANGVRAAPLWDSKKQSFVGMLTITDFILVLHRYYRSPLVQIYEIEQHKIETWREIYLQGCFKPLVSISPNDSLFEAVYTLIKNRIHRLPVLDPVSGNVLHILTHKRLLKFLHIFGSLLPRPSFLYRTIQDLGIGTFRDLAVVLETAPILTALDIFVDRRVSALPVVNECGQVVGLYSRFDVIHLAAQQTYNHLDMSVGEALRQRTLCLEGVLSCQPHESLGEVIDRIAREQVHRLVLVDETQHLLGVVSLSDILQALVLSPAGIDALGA
Chain of AMPK alpha2/beta1/gamma1 (P54646 whole entry): as the sequence (P54646 whole entry) above
Chain of AMPK alpha2/beta1/gamma1 (P54619 whole entry): as the sequence (P54619 whole entry) above
Chain of AMPK alpha2/beta1/gamma1 (Q9Y478 whole entry): as the sequence (Q9Y478 whole entry) above
Chain of AMP-activated protein kinase (AMPK) alpha-1/beta-1/gamma-1 (Homo sapiens) (P54619 whole entry): as the sequence (P54619 whole entry) above
Chain of AMP-activated protein kinase (AMPK) alpha-1/beta-1/gamma-1 (Homo sapiens) (Q13131 whole entry partner): as the sequence (Q13131 whole entry) above
Chain of AMP-activated protein kinase (AMPK) alpha-1/beta-1/gamma-1 (Homo sapiens) (Q9Y478 2-270 partner limits assumed): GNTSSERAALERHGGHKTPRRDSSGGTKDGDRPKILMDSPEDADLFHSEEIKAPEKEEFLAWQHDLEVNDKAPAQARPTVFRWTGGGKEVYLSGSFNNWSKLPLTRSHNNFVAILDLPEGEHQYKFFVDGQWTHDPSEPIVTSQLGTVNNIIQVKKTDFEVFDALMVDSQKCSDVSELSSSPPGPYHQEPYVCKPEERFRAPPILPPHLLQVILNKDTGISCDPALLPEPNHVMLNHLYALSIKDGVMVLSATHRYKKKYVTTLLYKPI

As usually defined, the logD is lipophilicity at a set pH, counting ionised and neutral species. As to `O=C(O)c1c[nH]c2cc(F)c(-c3ccc([C@@H]4CCCCO4)cc3)c(F)c12`, the Drug metabolism result in [1] is given as “Metabolite_Detected”. The Retention_time in series [2] is 9.72 min. In series [3], this molecule registered a log distribution coefficient (logD) at 1 h of 1.8.

In the case of `O=C(NO)c1c[nH]c2cc(Cl)c(-c3ccc(C4(O)CCC4)cc3)cc12`, in [4], the Drug metabolism result is on record as “Metabolite_Detected”. Further, in series [2], the Retention_time is given as 7.25 min.

In general, half-life refers to the time in which the quantity being followed falls by half. By clearance is commonly meant a measure of how efficiently the substance is removed, as volume per time. What is called AUC(0-t) is exposure summed from dosing to a finite time, without extrapolation to infinity. As usually defined, the AUC is concentration integrated over time. For orientation: fraction unbound means free concentration divided by total concentration. Broadly, the Papp is the rate of passage across a membrane or cell layer, normalised by area and donor concentration. For the molecule `O=C(O[C@@H]1O[C@H](C(=O)O)[C@@H](O)[C@H](O)[C@H]1O)c1c[nH]c2cc(Cl)c(-c3ccc(C4(O)CCC4)cc3)cc12`, the half-life in series [5] is greater than 4 h; in [8] it was greater than 21 h; in series [13], 6.96 h; in series [16], greater than 4 h; in [17], greater than 4 h; in series [24] it was 18 h. The hepatocyte CLint was less than 3 µL/min/1e6 cells in [6], less than 6 µL/min/1e6 cells in [18], less than 6 µL/min/1e6 cells in series [19] and less than 6 µL/min/1e6 cells in series [20]. In series [7], this molecule yielded a half-life at 10 µM greater than 6.67 h. The Drug metabolism result in [4] was “Metabolite_Detected”. Further, the clearance in series [9] was found to be 0.99 mL/min/kg; in series [21], 9.85 mL/min/kg. Also, the values for the AUC(0-t) at 24 h in series [10] and in [22] were 8850 ng·h/mL and 1750 ng·h/mL, respectively. Besides, the values for the area under the curve (AUC) in series [11] and in [14] were 101 ng·h/mL and 303 ng·h/mL, respectively. Further, the Vd in [12] came out at 0.4 L/kg; in series [23], 4.52 L/kg. Also, the dose excreted turned out to be 1% in [15] and 9.8% in series [25]. The molecule further yielded a Retention_time in series [2] of 7.09 min. Also, the fraction unbound in [26] is 0.028; in series [27], 0.019; in series [28] it was 0.0018. Further, in series [29], the Papp came out at 0.6 ×10⁻⁶ cm/s. Also, the pH-dependent lipophilicity (logD) at 1 h in [3] is -0.14.

A word on the EC50: it is the concentration at which the effect is half-maximal. One may read the Kd as the free concentration of one partner at which half of the binding sites on the other are occupied at equilibrium, for simple one-to-one binding. `O=C(O[C@@H]1O[C@H](C(=O)O)[C@@H](O)[C@H](O)[C@H]1O)c1c[nH]c2cc(F)c(-c3ccc([C@@H]4CCCCO4)cc3)c(F)c12`: in [8], the half-life is greater than 21 h. Also, the Drug metabolism entry in series [30] is recorded as “Metabolite_Detected”. For the same molecule, the T1/2 in [31] came out at 15.3 s. Moreover, in series [2], the Retention_time is given as 8.37 min. In series [29], this molecule registered a Papp of 0.3 ×10⁻⁶ cm/s. Also, in series [3], the log distribution coefficient (logD) at 1 h is 0.08. Moreover, the EC50 in [32] was greater than 40000 nM; in [34], greater than 40000 nM; in series [35], greater than 40000 nM; in [36], 332 nM; in series [37], 59 nM. For the same molecule, the Kd in series [33] came to 198 nM.

On to `COc1nc(N(C)C)ccc1-c1cc2c(C(=O)O[C@@H]3O[C@H](C(=O)O)[C@@H](O)[C@H](O)[C@H]3O)c[nH]c2cc1Cl`, for which, in series [6], the hepatocyte CLint is less than 3 µL/min/1e6 cells. The half-life at 10 µM in series [7] was greater than 6.67 h. Moreover, the half-life in [8] was greater than 21 h. Also, in series [38], the Drug metabolism entry was “Metabolite_Detected”. The molecule further gave a Retention_time in [2] of 7.96 min. In [29], this molecule yielded a Papp of 0.3 ×10⁻⁶ cm/s. In addition, the logD at 1 h in [3] was -0.05.

`COc1nc(N(C)C)ccc1-c1cc2c(C(=O)O)c[nH]c2cc1Cl` came in with a logD at 1 h in series [3] of 2.3.
